Measured values published in patent US12186740B2, “Kits comprising containers with at least one solid catalytically active compound, and their uses in solid state reaction” (RD&C Research, Development & Consulting GmbH, priority 2018, dated 2025).
Where two headings read alike, the source gives them in different places.

Columns and labels:
[1] = 90 min, no additives
Protocol: As documented in literature clopidogrel bisulphate exists in one amorphous and two polymorphic forms, polymorph II was used for the experiments described. To elucidate the stability and detect changes of the polymorphic form after energy input a simple experimental set-up with the API and no further additives was executed and the polymorphic form was analysed by WAXS (wide-angel X-ray scattering) and DSC (differential scanning calorimetry).
These experiments could be used to evaluate the stability of various polymorphic forms in general, but could also indicate the stability/instability during industrial processing and manufacturing.

[2] = after 60 minutes process time
[3] = KMnO4 on aluminium oxide, dry; process times 60 to 300 minutes
[4] = acidic stressor at 40° C./75% relative humidity for 3 months; cited from earlier work
[5] = Proof of concept: solid phase oxidation in a ball mill with a solid catalyst; assay type: physicochemical
Protocol: The first experiment was focused on a simple, well characterized API and other molecules with low structural complexity but with representative functional groups. They were systematically combined with a selection of potentially suitable catalysts. The solid phase reactions were initiated by ball milling for energy transfer in a controlled environment. In a first experimental set-up the oxidation in solid phase systems was analysed including a systematic evaluation of various catalysts, carrier matrices and reaction conditions.
The following analytical methods were implemented. Two solid phase oxidation reactions were prepared. The catalyst used was KMnO4 on silica and the active reaction container was a ball mill.

Row | Compound | polymorphic form after milling (DSC profile) ([1]; milling 10 Hz) | polymorphic form after milling (DSC profile) ([1]; milling 25 Hz) | quantity of degradation, solid phase conditions vs conventional forced degradation conditions ([2]; based on AUCs in the HPLC method) | acidic degradation product (RT 15 min) ([2]; solid phase set-up, acidic solid phase catalyst) | follow-up or second line degradation products [3] | oxidative degradation products formed [3] | time-dependency of the degradation reaction [3] | acidic degradation product (RT 15 min) [4] | oxidation product(s) formed ([5]; KMnO4 on silica, ball mill) | oxidation product(s) formed ([5]; on aluminium oxide)
1 | COC(=O)[C@H](c1ccccc1Cl)N1CCc2sccc2C1 [clopidogrel bisulphate] | minor changes and higher stability | change of the polymorphic form II to the amorphous state | comparable amount | could also be detected | no follow-up or second line degradation products occurred | two oxidative solid phase degradation products | clear time-dependency | detected |  | 
2 | c1ccc(Sc2ccccc2)cc1 [diphenylsulfide] |  |  |  |  |  |  |  |  | diphenylsulfoxide and diphenylsulfone | solely the higher oxidation state product diphenyl sulfone, but no diphenylsulfoxide
